Data from PubChem BioAssay (NCI).
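Growth conditions: 96-well plates. Treatment: test compound, 48 hours, 5 concentrations. Analysis: linear interpolation between bracketing concentrations; unreached endpoints set to highest concentration. Definition used: TGI = concentration required for complete inhibition of growth.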

Experiments:
Test in all cases: growth of human tumour cells (NCI), 48 h
K-562 leukemia = tested on: K-562 leukemia
SNB-19 CNS = tested on: SNB-19 CNS
COLO 205 colon = tested on: COLO 205 colon
LOX IMVI melanoma = tested on: LOX IMVI melanoma
PC-3 prostate = tested on: PC-3 prostate
SK-MEL-28 melanoma = tested on: SK-MEL-28 melanoma
MDA-MB-435 = tested on: MDA-MB-435
MOLT-4 leukemia = tested on: MOLT-4 leukemia
SK-OV-3 ovarian = tested on: SK-OV-3 ovarian
OVCAR-5 ovarian = tested on: OVCAR-5 ovarian
MDA-N = tested on: MDA-N
DU-145 prostate = tested on: DU-145 prostate
NCI-H522 lung = tested on: NCI-H522 lung
NCI-H23 lung = tested on: NCI-H23 lung
MALME-3M melanoma = tested on: MALME-3M melanoma
HCT-15 colon = tested on: HCT-15 colon
BT-549 breast = tested on: BT-549 breast
UO-31 renal = tested on: UO-31 renal
NCI-H226 lung = tested on: NCI-H226 lung
SN12C renal = tested on: SN12C renal

Row | Structure (SMILES) | TGI (K-562 leukemia) [µM] | TGI (SNB-19 CNS) [µM] | TGI (COLO 205 colon) [µM] | TGI (LOX IMVI melanoma) [µM] | TGI (PC-3 prostate) [µM] | TGI (SK-MEL-28 melanoma) [µM] | TGI (MDA-MB-435) [µM] | TGI (MOLT-4 leukemia) [µM] | TGI (SK-OV-3 ovarian) [µM] | TGI (OVCAR-5 ovarian) [µM] | TGI (MDA-N) [µM] | TGI (DU-145 prostate) [µM] | TGI (NCI-H522 lung) [µM] | TGI (NCI-H23 lung) [µM] | TGI (MALME-3M melanoma) [µM] | TGI (HCT-15 colon) [µM] | TGI (BT-549 breast) [µM] | TGI (UO-31 renal) [µM] | TGI (NCI-H226 lung) [µM] | TGI (SN12C renal) [µM]
1 | COc1cc(-c2cc(=O)c3c(OC)c(OC)c(OC)cc3o2)c(OC)c(OC)c1OC | > 75 | > 75 | > 75 | > 75 | > 75 | > 75 | > 75 | > 75 | > 75 | > 75 | > 75 | > 75 | > 75 | > 75 | > 75 | > 75 | > 75 | > 75 | > 75 | > 75
2 | COC(=O)CC1C(COC(C)=O)OC(n2cc(C)c(=O)[nH]c2=O)C1OC(C)=O (stereo not given) | > 100 | > 100 | > 100 | > 100 | > 100 | > 100 | > 100 | > 100 | > 100 | > 100 | > 100 | > 100 | > 100 | > 100 | > 100 | > 100 | > 100 | > 100 | > 100 | > 100
3 | O=S(=O)(N/N=C1\CC2CCC1C2)c1ccccc1 (stereo not given) | > 100 | > 100 | > 100 | > 100 | > 100 | > 100 | > 100 | > 100 | > 100 | > 100 | > 100 | > 100 | > 100 | > 100 | > 100 | > 100 | > 100 | > 100 | > 100 | > 100
4 | O=C1Cc2c([nH]c3c(Cl)cccc23)-c2ccccc2N1 | > 100 | > 100 | > 100 | > 100 | > 100 | > 100 | > 100 | > 100 | > 100 | > 100 | > 100 | > 100 | > 100 | > 100 | > 100 | > 100 | > 100 | > 100 | > 100 | > 100
5 | CC(C)C[C@H](NC(=O)[C@H](Cc1ccccc1)NC(=O)CCc1ccccc1)B(O)O | > 100 | 1.08 | < 0.01 | < 0.01 | < 0.01 | < 0.01 | < 0.01 | 0.665 | 0.0727 | < 0.01 | < 0.01 | < 0.01 | < 0.01 | < 0.01 | < 0.01 | < 0.01 | < 0.01 | < 0.01 | < 0.01 | < 0.01
6 | Cc1ccc(Cc2n[nH]c(=O)n2/N=C\CC/C=N\n2c(Cc3ccc(C)cc3)n[nH]c2=O)cc1 | > 100 | > 100 | > 100 | > 100 | > 100 | > 100 | > 100 | > 100 | > 100 | > 100 | > 100 | > 100 | > 100 | 84.6 | > 100 | > 100 | > 100 | > 100 | 65.3 | > 100
